According to US9326513B2, “Fungicidal compositions” (Syngenta Participations AG, priority 2011, dated 2016):

Assays:
Type in all cases: in vivo
Settings in all cases: foliar, compared to untreated control leaf disks, read-out: disease control
[1] = system: Puccinia recondita f. sp. tritici; assay: Puccinia recondita f. sp. tritici / wheat / leaf disc curative (brown rust)
Method: Puccinia recondita f. sp. tritici/Wheat/Leaf Disc Curative (Brown Rust) Wheat leaf segments cv. Kanzler are placed on agar in multiwell plates (24-well format). The leaf segments are inoculated with a spore suspension of the fungus. Plates were stored in darkness at 19° C. and 75% rh. The formulated test compound diluted in water was applied 1 day after inoculation.

Pyrenophora teres = Pyrenophora teres / barley / leaf disc preventative (net blotch)
From the text: Pyrenophora teres/Barley/Leaf Disc Preventative (Net Blotch) Barley leaf segments cv. Hasso were placed on agar in a multiwell plate (24-well format) and sprayed with the formulated test compound diluted in water. The leaf segments were inoculated with a spore suspension of the fungus 2 days after application.

[2] = system: Puccinia recondita f. sp. tritici; assay: Puccinia recondita f. sp. tritici / wheat / leaf disc preventative (brown rust)
From the text: Puccinia recondita f. sp. tritici/Wheat/Leaf Disc Preventative (Brown Rust) Wheat leaf segments cv. Kanzler were placed on agar in multiwell plates (24-well format) and sprayed with the formulated test compound diluted in water. The leaf disks were inoculated with a spore suspension of the fungus 1 day after application.

[3] = system: Blumeria graminis f. sp. tritici (Erysiphe graminis f. sp. tritici); assay: Blumeria graminis f. sp. tritici / wheat / leaf disc preventative (powdery mildew on wheat)
Procedure, shortened: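 Wheat leaf segments (cv. Kanzler) on agar were sprayed with formulated compound in water, inoculated with powdery mildew 1 day later, and kept at 20° C, 60% rh (24 h dark, then 12 h light/12 h dark). Percent disease control versus untreated scored 6-8 days after application; tested at 200 ppm.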

Measured: pest or weed control at 200 ppm

CCN(C)/C=N/c1cc(Br)c(OCc2ccc(C(F)(F)F)nc2)nc1C [Q.136]
≥ 50%: [1] | Pyrenophora teres | [2] | [3]

CCN(C)/C=N/c1cc(Br)c(OC2CCc3ccccc3C2)nc1C (stereo not drawn) [Q.110]
≥ 50%: [1] | Pyrenophora teres | [2] | [3]

CCN(C)/C=N/c1cc(OC)c(OC(C)c2cc(F)cc(F)c2)nc1C (stereo not drawn) [Q.214]
≥ 50%: [1] | Pyrenophora teres | [2] | [3]

CCN(C)/C=N/c1cc(Br)c(OCc2ccc(F)c(F)c2)nc1C [Q.206]
≥ 50%: [1] | Pyrenophora teres | [2] | [3]

CCN(C)/C=N/c1cc(Br)c(OCc2ccccc2[S+](C)[O-])nc1C (stereo not drawn) [Q.336]
≥ 50%: [1] | Pyrenophora teres | [2] | [3]

CCN(C)/C=N/c1cc(Br)c(OCCC[Si](C)(C)C)nc1C [Q.015]
≥ 50%: [1] | Pyrenophora teres | [2] | [3]

CCN(C)/C=N/c1cc(Br)c(OC2CC=CCC2)nc1C (stereo not drawn) [Q.316]
≥ 50%: [1] | Pyrenophora teres | [2] | [3]

C=CCOC1CCC(Oc2nc(C)c(/N=C/N(C)CC)cc2Br)CC1 (stereo not drawn) [Q.212]
≥ 50%: [1] | Pyrenophora teres | [2] | [3]

C=C1CCC(Oc2nc(C)c(/N=C/N(C)CC)cc2Br)CC1 [Q.293]
≥ 50%: [1] | Pyrenophora teres | [2] | [3]

CCN(C)/C=N/c1cc(Br)c(OCc2ccccc2SC)nc1C [Q.335]
≥ 50%: [1] | Pyrenophora teres | [2] | [3]

CCN(C)/C=N/c1cc(Br)c(OCc2ccsc2)nc1C [Q.208]
≥ 50%: [1] | Pyrenophora teres | [2] | [3]

CCN(C)/C=N/c1cc(Br)c(OC2CC(C)=C(C)C2)nc1C [Q.315]
≥ 50%: [1] | Pyrenophora teres | [2] | [3]

CCN(C)/C=N/c1cc(Br)c(OC2CCC(=C(C)C)CC2)nc1C (stereo not drawn) [Q.122]
≥ 50%: [1] | Pyrenophora teres | [2] | [3]

CCN(C)/C=N/c1cc(Br)c(OC2Cc3cc(OC)c(OC)cc3C2)nc1C [Q.066]
≥ 50%: [1] | Pyrenophora teres | [2] | [3]

CCN(C)/C=N/c1cc(Br)c(OCCC(C)C)nc1C [Q.391]
≥ 50%: [1] | Pyrenophora teres | [2] | [3]

CCN(C)/C=N/c1cc(Br)c(O[C@H]2CC[C@@H](c3ccccc3)CC2)nc1C [Q.269]
≥ 50%: [1] | Pyrenophora teres | [2] | [3]

CCN(C)/C=N/c1cc(Br)c(OC(C)Cc2cc(C)cc(C)c2)nc1C (stereo not drawn) [Q.219]
≥ 50%: [1] | Pyrenophora teres | [2] | [3]

CCN(C)/C=N/c1cc(Br)c(OC2CCc3ccc(OC)cc3C2)nc1C (stereo not drawn) [Q.018]
≥ 50%: [1] | Pyrenophora teres | [2] | [3]
